Assay results as given in ChEMBL document CHEMBL5154884, “Discovery of a Novel Src Homology-2 Domain Containing Protein Tyrosine Phosphatase-2 (SHP2) and Cyclin-Dependent Kinase 4 (CDK4) Dual Inhibitor for the Treatment of Triple-Negative Breast Cancer” (J Med Chem, 2022).
Blank lines part the entries; values can stand above or below the molecule they belong to.

Assays:
[1] = target: T1, Tyrosine-protein phosphatase non-receptor type 11 (Homo sapiens, UniProt Q06124); assay: Inhibition of SHP2 (unknown origin) using DiFMUP as substrate incubated for 60 mins followed by substrate addition for 30 mins by microplate reader method
T1 sequence (Q06124 whole entry): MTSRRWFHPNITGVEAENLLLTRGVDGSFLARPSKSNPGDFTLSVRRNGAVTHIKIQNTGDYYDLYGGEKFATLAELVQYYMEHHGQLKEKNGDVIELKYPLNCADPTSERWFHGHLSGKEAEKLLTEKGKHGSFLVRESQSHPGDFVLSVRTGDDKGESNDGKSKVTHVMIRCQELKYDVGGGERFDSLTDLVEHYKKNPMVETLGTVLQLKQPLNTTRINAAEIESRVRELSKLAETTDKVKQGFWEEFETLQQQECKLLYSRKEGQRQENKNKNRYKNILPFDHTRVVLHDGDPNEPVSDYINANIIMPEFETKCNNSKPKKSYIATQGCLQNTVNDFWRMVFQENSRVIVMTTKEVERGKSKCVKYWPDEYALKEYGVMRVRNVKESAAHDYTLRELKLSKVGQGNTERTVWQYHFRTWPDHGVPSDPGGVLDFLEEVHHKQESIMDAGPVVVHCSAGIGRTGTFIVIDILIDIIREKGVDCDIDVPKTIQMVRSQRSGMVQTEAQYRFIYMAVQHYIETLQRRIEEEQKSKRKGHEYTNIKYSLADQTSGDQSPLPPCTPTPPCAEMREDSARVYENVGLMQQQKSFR

[2] = target: CDK4/Cyclin D3 (Homo sapiens, UniProt P11802); assay: Inhibition of recombinant N-terminal GST/His6-fusion tagged human CDK4/Cyclin D3 expressed in Sf9 insect cells using 5-FAM-IPTSPITTTYFFFKKK as substrate preincubated for 10 mins followed by substrate addition and incubated for 3 hrs in presence of ATP by caliper mobility shift analysis
CDK4/Cyclin D3, sequence (P11802 whole entry, the tested form may be a part): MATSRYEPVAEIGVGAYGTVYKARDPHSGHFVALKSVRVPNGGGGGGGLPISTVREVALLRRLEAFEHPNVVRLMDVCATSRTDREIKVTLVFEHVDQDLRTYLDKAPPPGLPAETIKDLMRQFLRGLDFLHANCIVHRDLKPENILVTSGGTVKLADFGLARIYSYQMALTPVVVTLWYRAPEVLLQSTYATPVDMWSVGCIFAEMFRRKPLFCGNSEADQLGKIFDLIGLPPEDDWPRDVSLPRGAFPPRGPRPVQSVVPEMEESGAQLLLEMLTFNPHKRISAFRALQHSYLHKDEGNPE
CDK4/Cyclin D3, sequence (P30281 whole entry, further chain, the tested form may be a part): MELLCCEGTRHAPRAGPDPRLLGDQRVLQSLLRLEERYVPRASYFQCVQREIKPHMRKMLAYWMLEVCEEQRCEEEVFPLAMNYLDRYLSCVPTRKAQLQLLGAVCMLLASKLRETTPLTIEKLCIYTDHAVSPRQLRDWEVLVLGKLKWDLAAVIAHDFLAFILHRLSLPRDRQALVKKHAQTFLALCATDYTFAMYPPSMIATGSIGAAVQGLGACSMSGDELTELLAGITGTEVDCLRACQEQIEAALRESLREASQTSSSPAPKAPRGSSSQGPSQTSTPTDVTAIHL

[3] = tested on: MDA-MB-231
[4] = tested on: MDA-MB-231; assay: Induction of cell cycle arrest in human MDA-MB-231 cells assessed as accumulation of cells in S phase at 3 uM incubated for 48 hrs in presence of abemaciclib by RNase/propidium iodide staining based flow cytometry analysis (reference value: […]); format: functional
[5] = tested on: MDA-MB-231; assay: Induction of cell cycle arrest in human MDA-MB-231 cells assessed as accumulation of cells in G0/G1 phase at 3 uM incubated for 48 hrs in presence of abemaciclib by RNase/propidium iodide staining based flow cytometry analysis (reference value: 26.2%); format: functional
[6] = tested on: EMT6; assay: Antiproliferative activity against mouse EMT6 cells assessed as inhibition of cell growth incubated for 48 hrs by MTT assay; format: functional, cell-based
[7] = tested on: MDA-MB-231; assay: Induction of cell cycle arrest in human MDA-MB-231 cells assessed as accumulation of cells in G2/M phase at 3 uM incubated for 48 hrs in presence of abemaciclib by RNase/propidium iodide staining based flow cytometry analysis (reference value: 2.7%); format: functional
[8] = tested on: MDA-MB-468; assay: Antiproliferative activity against human MDA-MB-468 cells assessed as inhibition of cell growth incubated for 48 hrs by MTT assay; format: functional, cell-based
[9] = tested on: MDA-MB-231; assay: Induction of cell cycle arrest in human MDA-MB-231 cells assessed as accumulation of cells in S phase at 3 uM incubated for 48 hrs by RNase/propidium iodide staining based flow cytometry analysis (reference value: […]); format: functional
[10] = tested on: EMT6
[11] = tested on: MDA-MB-231; assay: Induction of apoptosis in human MDA-MB-231 cells assessed as late apoptotic cells at 3 uM incubated for 48 hrs in presence of abemaciclib by Annexin V-FITC/PI staining based flow cytometric analysis (reference value: 1.06%); format: functional
[12] = tested on: MDA-MB-231; assay: Antiproliferative activity against human MDA-MB-231 cells assessed as inhibition of cell growth incubated for 48 hrs by MTT assay; format: functional, cell-based
[13] = tested on: MDA-MB-231; assay: Induction of apoptosis in human MDA-MB-231 cells assessed as necrotic cells at 3 uM measured after 48 hrs by Annexin V-FITC/PI staining based flow cytometric analysis (reference value: 0.58%); format: functional
[14] = tested on: MDA-MB-468
[15] = tested on: MDA-MB-231; assay: Induction of apoptosis in human MDA-MB-231 cells assessed as viable cells at 3 uM measured after 48 hrs by Annexin V-FITC/PI staining based flow cytometric analysis (reference value: 98.04%); format: functional; details: read-out: Activity
[16] = tested on: MDA-MB-231; assay: Induction of cell cycle arrest in human MDA-MB-231 cells assessed as accumulation of cells in G2/M phase at 3 uM incubated for 48 hrs by RNase/propidium iodide staining based flow cytometry analysis (reference value: 2.7%); format: functional
[17] = tested on: EMT6; assay: Antitumor activity against mouse EMT6 cells implanted in BALB/c mouse syngenic model assessed as tumor growth inhibition at 40 mg/kg, po qd and measured after 18 days relative to control; format: functional; details: EMT6, 432 h, time 18 day, read-out: TGI
[18] = tested on: MDA-MB-231; assay: Induction of apoptosis in human MDA-MB-231 cells assessed as early apoptotic cells at 3 uM measured after 48 hrs by Annexin V-FITC/PI staining based flow cytometric analysis (reference value: 0.32%); format: functional
[19] = tested on: EMT6; assay: Antitumor activity in mouse EMT6 cells implanted in BALB/c syngenic mouse model assessed as tumor growth inhibition at 40 mg/kg, po qd in presence of abemaciclib measured after 18 days relative to control; format: functional; details: EMT6, 432 h, time 18 day, read-out: TGI
[20] = tested on: MDA-MB-231; assay: Induction of apoptosis in human MDA-MB-231 cells assessed as necrotic cells at 3 uM incubated for 48 hrs in presence of abemaciclib by Annexin V-FITC/PI staining based flow cytometric analysis (reference value: 0.58%); format: functional
[21] = tested on: MDA-MB-231; assay: Induction of apoptosis in human MDA-MB-231 cells assessed as early apoptotic cells at 3 uM incubated for 48 hrs in presence of abemaciclib by Annexin V-FITC/PI staining based flow cytometric analysis (reference value: 0.32%); format: functional
[22] = tested on: MDA-MB-231; assay: Induction of apoptosis in human MDA-MB-231 cells assessed as late apoptotic cells at 3 uM measured after 48 hrs by Annexin V-FITC/PI staining based flow cytometric analysis (reference value: 1.06%); format: functional
[23] = tested on: MDA-MB-231; assay: Induction of apoptosis in human MDA-MB-231 cells assessed as viable cells at 3 uM incubated for 48 hrs in presence of abemaciclib by Annexin V-FITC/PI staining based flow cytometric analysis (reference value: 98.04%); format: functional; details: read-out: Activity
[24] = tested on: MDA-MB-231; assay: Induction of cell cycle arrest in human MDA-MB-231 cells assessed as accumulation of cells in G0/G1 phase at 3 uM incubated for 48 hrs by RNase/propidium iodide staining based flow cytometry analysis (reference value: 26.2%); format: functional

SMILES: Cc1nc2c(F)cc(-c3nc(Nc4ccc(Cl)c(Sc5cnc(N6CCC7(CC6)CO[C@@H](C)[C@H]7N)cn5)n4)ncc3F)cc2n1C(C)C
IC50 [1]: 618 nM
IC50 [2]: 212 nM

SMILES: Cc1nc2c(F)cc(-c3nc(Nc4ccc(Sc5cnc(N6CCC7(CC6)Cc6ccccc6[C@H]7N)cn5)c(Cl)n4)ncc3F)cc2n1C(C)C
IC50 [1]: 673 nM
IC50 [2]: 445 nM

SMILES: Cc1nc2c(F)cc(-c3nc(Nc4cnc(Sc5cnc(N6CCC7(CC6)CO[C@@H](C)[C@H]7N)cn5)c(Cl)c4)ncc3F)cc2n1C(C)C
IC50 [1]: 205 nM
IC50 [2]: 9.1 nM

SMILES: CN(C)C(=O)c1cc2cnc(Sc3cnc(N4CCC(C)(N)CC4)cn3)nc2n1C1CCCC1
IC50 [1]: > 1000 nM
IC50 [2]: > 1000 nM

SMILES: Cc1nc2c(F)cc(-c3nc(Nc4ccc(Sc5cnc(N6CCC7(CC6)CO[C@@H](C)[C@H]7N)cn5)c(Cl)n4)ncc3F)cc2n1C(C)C
IC50 [2]: 139 nM

SMILES: C[C@@H]1OCC2(CCN(c3cnc(Sc4ccnc(N)c4Cl)c(N)n3)CC2)[C@@H]1N [BATOPROTAFIB]
IC50 [3]: 12900 nM
Activity [4]: 53.2%
Activity [5]: 44.8%
IC50 ([6]; emt6): 7030 nM
Activity [7]: 2%
IC50 ([8]; mda-mb-468): > 20000 nM
Activity [9]: 56.7%
IC50 [10]: 2490 nM
Activity [11]: 12.42%
IC50 ([12]; mda-mb-231): > 20000 nM
Activity [13]: 1.07%
IC50 [14]: 3110 nM
viability at 3 µM [15]: 82.5%
Activity [16]: 2.6%
inhibition in vivo at 40 mg/kg [17]: 60%
Activity [18]: 7.32%
inhibition in vivo at 40 mg/kg [19]: 74%
Activity [20]: 0.95%
Activity [21]: 8.17%
Activity [22]: 9.13%
viability at 3 µM [23]: 78.5%
Activity [24]: 40.7%

SMILES: Cc1nc2c(F)cc(-c3nc(Nc4cc(Sc5cnc(N6CCC7(CC6)CO[C@@H](C)[C@H]7N)cn5)ccn4)ncc3F)cc2n1C(C)C
IC50 [1]: 47.2 nM
IC50 ([6]; Mus musculus, EMT6, 48 h): 1100 nM
IC50 ([8]; Homo sapiens, MDA-MB-468, 48 h): 9620 nM
IC50 ([12]; Homo sapiens, MDA-MB-231, 48 h): 5130 nM
IC50 [2]: 16.1 nM

SMILES: Cc1nc2c(F)cc(-c3nc(Nc4cccc(Sc5cnc(N6CCC7(CC6)CO[C@@H](C)[C@H]7N)cn5)c4Cl)ncc3F)cc2n1C(C)C
IC50 [1]: 16.5 nM
IC50 ([6]; Mus musculus, EMT6, 48 h): 580 nM
IC50 ([8]; Homo sapiens, MDA-MB-468, 48 h): 9100 nM
IC50 ([12]; Homo sapiens, MDA-MB-231, 48 h): 4550 nM
IC50 [2]: 6.7 nM

SMILES: Cc1nc2c(F)cc(-c3nc(Nc4ccc(Sc5cnc(N6CCC7(CC6)CO[C@@H](C)[C@H]7N)cn5)c(Cl)c4)ncc3F)cc2n1C(C)C
IC50 ([6]; Mus musculus, EMT6, 48 h): 1660 nM
IC50 ([8]; Homo sapiens, MDA-MB-468, 48 h): 10300 nM
IC50 ([12]; Homo sapiens, MDA-MB-231, 48 h): 3240 nM
IC50 [2]: 7 nM

SMILES: CCN1CCN(Cc2ccc(Nc3ncc(F)c(-c4cc(F)c5nc(C)n(C(C)C)c5c4)n3)nc2)CC1 [ABEMACICLIB]
IC50 ([6]; Mus musculus, EMT6, 48 h): 4180 nM
IC50 ([8]; Homo sapiens, MDA-MB-468, 48 h): > 20000 nM
Activity [9]: 60.2%
IC50 ([12]; Homo sapiens, MDA-MB-231, 48 h): > 20000 nM
Activity [13]: 1.42%
viability at 3 µM [15]: 86%
Activity [16]: 2.7%
inhibition in vivo at 40 mg/kg [17]: 35%
Activity [18]: 5.86%
Activity [22]: 6.73%
Activity [24]: 37.1%

SMILES: Cc1nc2c(F)cc(-c3nc(Nc4cc(Cl)c(Sc5cnc(N6CCC7(CC6)CO[C@@H](C)[C@H]7N)cn5)cn4)ncc3F)cc2n1C(C)C
IC50 [2]: 8.8 nM

SMILES: Cc1nc2c(F)cc(-c3nc(Nc4cc(Sc5cnc(N6CCC7(CC6)CO[C@@H](C)[C@H]7N)cn5)c(Cl)cn4)ncc3F)cc2n1C(C)C
IC50 [2]: > 1000 nM

SMILES: Cc1nc2c(F)cc(-c3nc(Nc4nccc(Sc5cnc(N6CCC7(CC6)Cc6ccccc6[C@H]7N)cn5)c4Cl)ncc3F)cc2n1C(C)C
IC50 [1]: 8.2 nM
IC50 ([6]; Mus musculus, EMT6, 48 h): 1070 nM
IC50 ([8]; Homo sapiens, MDA-MB-468, 48 h): 3900 nM
IC50 ([12]; Homo sapiens, MDA-MB-231, 48 h): 4440 nM
IC50 [2]: 95.9 nM

Now from value to molecule:

IC50 [1]: 34.1 nM
IC50 [2]: 519 nM
SMILES: CN(C)C(=O)c1cc2cnc(Nc3ccc(Sc4cnc(N5CCC6(CC5)Cc5ccccc5[C@H]6N)cn4)c(Cl)n3)nc2n1C1CCCC1

IC50 [1]: 3.2 nM
IC50 [2]: > 1000 nM
SMILES: CN(C)C(=O)c1cc2cnc(Nc3nccc(Sc4cnc(N5CCC6(CC5)Cc5ccccc5[C@H]6N)cn4)c3Cl)nc2n1C1CCCC1

IC50 [2]: 8.1 nM
SMILES: CN(C)C(=O)c1cc2cnc(Nc3ccc(Sc4cnc(N5CCC(C)(N)CC5)cn4)cn3)nc2n1C1CCCC1

IC50 [2]: 51.1 nM
SMILES: CN(C)C(=O)c1cc2cnc(Nc3ccc(Sc4cnc(N5CCC(C)(N)CC5)cn4)c(Cl)n3)nc2n1C1CCCC1

IC50 [1]: 31.3 nM
IC50 [2]: 443 nM
SMILES: CN(C)C(=O)c1cc2cnc(Nc3nccc(Sc4cnc(N5CCC(C)(N)CC5)cn4)c3Cl)nc2n1C1CCCC1

IC50 [1]: 52.1 nM
IC50 [2]: > 1000 nM
SMILES: CN(C)C(=O)c1cc2cnc(Nc3ccc(Sc4cnc(N5CCC6(CC5)Cc5ccccc5[C@H]6N)cn4)c(Cl)c3)nc2n1C1CCCC1
